Among the data in PubChem BioAssay AID256 (DTP/NCI, 2004) are T/C values, retold here.

The subject of this test is CD2F1 mice, L1210 leukemia ip, survival T/C. Put plainly: NCI In Vivo Anticancer Drug Screen. Data for tumor model L1210 Leukemia (intraperitoneal) in CD2F1 (CDF1) mice. The settings on record: higher = longer survival. The gist of the method:
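Each value reflects a quotient of treated over vehicle control outcomes in mice with a transplanted tumor.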

Where [1] appears, read: endpoint: mean survival time, dose: 100.0 mg/kg/injection, schedule: Q04DX003 (ip), vehicle: saline.
Setting [2] is: endpoint: mean survival time, dose: 200.0 mg/kg/injection, schedule: Q01DX009 (ip), vehicle: saline.
Where [3] appears, read: endpoint: mean survival time, dose: 200.0 mg/kg/injection, schedule: Q04DX003 (ip), vehicle: saline.
Setting [4] is: endpoint: mean survival time, dose: 400.0 mg/kg/injection, schedule: Q04DX003 (ip), vehicle: saline.
Setting [5] is: endpoint: mean survival time, dose: 100.0 mg/kg/injection, schedule: Q04DX003 (ip), vehicle: saline with Tween-80.
The mark [6] stands for this setting: endpoint: mean survival time, dose: 200.0 mg/kg/injection, schedule: Q04DX003 (ip), vehicle: saline with Tween-80.
Where [7] appears, read: endpoint: mean survival time, dose: 400.0 mg/kg/injection, schedule: Q04DX003 (ip), vehicle: saline with Tween-80.
The mark [8] stands for this setting: endpoint: mean survival time, dose: 1.56 mg/kg/injection, schedule: Q01DX009 (ip), vehicle: saline.
The mark [9] stands for this setting: endpoint: mean survival time, dose: 6.25 mg/kg/injection, schedule: Q01DX009 (ip), vehicle: saline.
Setting [10] is: endpoint: mean survival time, dose: 12.5 mg/kg/injection, schedule: Q01DX009 (ip), vehicle: saline.
[11] abbreviates: endpoint: mean survival time, dose: 100.0 mg/kg/injection, schedule: Q01DX001 (ip), vehicle: saline.
Where [12] appears, read: endpoint: mean survival time, dose: 200.0 mg/kg/injection, schedule: Q01DX001 (ip), vehicle: saline.
[13] abbreviates: endpoint: mean survival time, dose: 400.0 mg/kg/injection, schedule: Q01DX001 (ip), vehicle: saline.
[14] abbreviates: endpoint: mean survival time, dose: 100.0 mg/kg/injection, schedule: Q01DX009 (ip), vehicle: saline with Tween-80.
The mark [15] stands for this setting: endpoint: mean survival time, dose: 200.0 mg/kg/injection, schedule: Q01DX009 (ip), vehicle: saline with Tween-80.
The mark [16] stands for this setting: endpoint: mean survival time, dose: 25.0 mg/kg/injection, schedule: Q01DX009 (ip), vehicle: saline.

Several values for one entry are separate records, joined by “and”; a condition that tells them apart may be missing. Equal values may be shown once. Toxic doses and inconclusive results are not listed.

In the case of `[Cl][Pt+2][Cl].[N-]=C(N)/N=C(\[NH-])N`, the T/C (endpoint: median survival time, dose: 12.5 mg/kg/injection, schedule: Q04DX003 (ip), vehicle: distilled water + Tween-80) was 104 % of control; the T/C (endpoint: median survival time, dose: 25.0 mg/kg/injection, schedule: Q04DX003 (ip), vehicle: distilled water + Tween-80) is 101 % of control; the T/C (endpoint: median survival time, dose: 50.0 mg/kg/injection, schedule: Q04DX003 (ip), vehicle: distilled water + Tween-80) was 101 % of control; the T/C (endpoint: median survival time, dose: 100.0 mg/kg/injection, schedule: Q04DX003 (ip), vehicle: distilled water + Tween-80) was 108 % of control; the T/C (endpoint: median survival time, dose: 200.0 mg/kg/injection, schedule: Q04DX003 (ip), vehicle: distilled water + Tween-80) is 108 % of control.

Consider `CS(C)=O.O=C([O-])CC(=O)[O-].[NH-]CC(O)CN(Cc1ccccc1)CC(O)CN.[Pt+4]` (centres undefined), for which the T/C reads like this: (endpoint: median survival time, dose: 10.0 mg/kg/injection, schedule: Q04DX003 (ip), vehicle: water) 107 % of control; (endpoint: median survival time, dose: 20.0 mg/kg/injection, schedule: Q04DX003 (ip), vehicle: water) 104 % of control; (endpoint: median survival time, dose: 40.0 mg/kg/injection, schedule: Q04DX003 (ip), vehicle: water) 104 % of control; (endpoint: median survival time, dose: 50.0 mg/kg/injection, schedule: Q04DX003 (ip), vehicle: water) 100 % of control; (endpoint: median survival time, dose: 80.0 mg/kg/injection, schedule: Q04DX003 (ip), vehicle: water) 108 % of control; (endpoint: median survival time, dose: 100.0 mg/kg/injection, schedule: Q04DX003 (ip), vehicle: water) 104 % of control. In addition, the T/C reads like this: (endpoint: median survival time, dose: 200.0 mg/kg/injection, schedule: Q04DX003 (ip), vehicle: water) 117 % of control and 110 % of control; (endpoint: median survival time, dose: 400.0 mg/kg/injection, schedule: Q04DX003 (ip), vehicle: water) 114 % of control.

In the case of `CS(=O)(=O)/C=C(\I)c1ccccc1`, the T/C runs as follows: (endpoint: mean survival time, dose: 100.0 mg/kg/injection, schedule: Q01DX009 (ip), vehicle: saline) 98 % of control; under setting [1], 104 % of control; under setting [2], 93 % of control; under setting [3], 106 % of control; (endpoint: mean survival time, dose: 400.0 mg/kg/injection, schedule: Q01DX009 (ip), vehicle: saline) 95 % of control; under setting [4], 98 % of control.

In the case of `O=C1OC(=O)C2C1C1CCC2C1(c1ccccc1)c1ccccc1` (centres undefined), the T/C was 97 % of control under setting [5], 97 % of control under setting [6] and 97 % of control under setting [7].

Take `COC1N(C2CC(O)C(CO)O2)C(=O)NC(=O)C1(F)Br` (centres undefined): the T/C runs as follows: under setting [8], 97 % of control and 108 % of control; (endpoint: mean survival time, dose: 3.12 mg/kg/injection, schedule: Q01DX009 (ip), vehicle: saline) 115 % of control and 117 % of control; under setting [9], 112 % of control; under setting [10], 109 % of control; under setting [1], 110 % of control; under setting [3], 122 % of control.

As for `Cc1cc(C)c(C)c(Br)c1`, the T/C is 95 % of control (endpoint: mean survival time, dose: 100.0 mg/kg/injection, schedule: Q01DX009 (ip), vehicle: saline sonified); 100 % of control under setting [5]; 102 % of control under setting [7].

Regarding `COc1ccc2c(c1)CCc1cn[nH]c1-2`, the T/C is, setting by setting: under setting [11], 101 % of control; under setting [1], 106 % of control; under setting [12], 103 % of control; under setting [3], 106 % of control; under setting [13], 98 % of control; under setting [4], 100 % of control.

For `CCOC(=O)Nc1cc(F)c(F)cc1F`, the T/C by setting is: under setting [14], 98 % of control; under setting [15], 98 % of control.

Regarding `O=C(O)c1ccc([As](=O)(O)O)cc1`, the T/C (endpoint: mean survival time, dose: 6.25 mg/kg/injection, schedule: Q01DX009 (ip), vehicle: Klucel (hydroxypropylcellulose) (HPC)) is 102 % of control; the T/C (endpoint: mean survival time, dose: 12.5 mg/kg/injection, schedule: Q01DX009 (ip), vehicle: Klucel (hydroxypropylcellulose) (HPC)) was 98 % of control; the T/C (endpoint: mean survival time, dose: 25.0 mg/kg/injection, schedule: Q01DX009 (ip), vehicle: Klucel (hydroxypropylcellulose) (HPC)) was 87 % of control and 92 % of control.

In the case of `NC(CSC(c1ccccc1)(c1ccccc1)c1ccccc1)C(=O)NCC(=O)O` (centres undefined), the T/C by setting is: under setting [16], 110 % of control; under setting [2], 171 % of control.

Take `COc1ccc2nc3cc(Cl)ccc3c(Nc3cccc(NC(C)=O)c3)c2n1`: the T/C was 102 % of control (endpoint: mean survival time, dose: 25.0 mg/kg/injection, schedule: Q01DX009 (ip), vehicle: other); 96 % of control (endpoint: mean survival time, dose: 50.0 mg/kg/injection, schedule: Q01DX009 (ip), vehicle: other); 86 % of control (endpoint: mean survival time, dose: 100.0 mg/kg/injection, schedule: Q01DX009 (ip), vehicle: other).

With `Cc1cc(C)cc(NC(=O)c2ccccc2N)c1`, the T/C runs as follows: under setting [14], 107 % of control; under setting [15], 95 % of control; (endpoint: mean survival time, dose: 400.0 mg/kg/injection, schedule: Q01DX009 (ip), vehicle: saline with Tween-80) 107 % of control.

As to `CCCCC(CC)CCC(OC(=O)CSC#N)C(C)CC` (centres undefined), the T/C is 97 % of control under setting [11], 91 % of control under setting [12] and 97 % of control under setting [13].

Regarding `Nc1ncnc2c1ncn2CCNC(=S)Nc1ccccc1`, the T/C by setting is: (endpoint: mean survival time, dose: 6.25 mg/kg/injection, schedule: Q01DX005 (ip), vehicle: other) 88 % of control; (endpoint: mean survival time, dose: 12.5 mg/kg/injection, schedule: Q01DX005 (ip), vehicle: other) 92 % of control; (endpoint: mean survival time, dose: 25.0 mg/kg/injection, schedule: Q01DX005 (ip), vehicle: other) 88 % of control; (endpoint: mean survival time, dose: 50.0 mg/kg/injection, schedule: Q01DX005 (ip), vehicle: other) 92 % of control; (endpoint: mean survival time, dose: 100.0 mg/kg/injection, schedule: Q01DX005 (ip), vehicle: other) 92 % of control.

Take `O=C(O)/C=C/SCCC(=O)O`: the T/C under setting [5] is 93 % of control and 101 % of control; the T/C under setting [6] was 101 % of control and 94 % of control.

For the molecule `N#CCCCN1C(=O)c2ccccc2C1=O`, the T/C is, setting by setting: (endpoint: mean survival time, dose: 50.0 mg/kg/injection, schedule: Q01DX009 (ip), vehicle: Klucel (hydroxypropylcellulose) (HPC)) 99 % of control; (endpoint: mean survival time, dose: 100.0 mg/kg/injection, schedule: Q01DX009 (ip), vehicle: Klucel (hydroxypropylcellulose) (HPC)) 97 % of control; (endpoint: mean survival time, dose: 200.0 mg/kg/injection, schedule: Q01DX009 (ip), vehicle: Klucel (hydroxypropylcellulose) (HPC)) 99 % of control.

`O=C1CCC(=O)O1`: the T/C was 95 % of control under setting [14] and 102 % of control under setting [15].

For `Nc1ncn(C2OC(COC(=O)c3ccccc3)C(OC(=O)c3ccccc3)C2OC(=O)c2ccccc2)c(=O)n1` (centres undefined), the T/C was 108 % of control under setting [8]; 164 % of control and 170 % of control under setting [9]; 205 % of control and 227 % of control under setting [10]; 115 % of control and 124 % of control under setting [16]; 91 % of control and 93 % of control (endpoint: mean survival time, dose: 50.0 mg/kg/injection, schedule: Q01DX009 (ip), vehicle: saline).

Regarding `COC(=O)c1ccccc1NCC(O)C(O)C(O)CO` (centres undefined), the T/C reads like this: under setting [11], 98 % of control; under setting [12], 101 % of control; under setting [13], 86 % of control.

Consider `Cc1cc(C)c(CCl)cc1CCl`, for which the T/C reads like this: (endpoint: mean survival time, dose: 12.5 mg/kg/injection, schedule: Q01DX009 (ip), vehicle: saline with Tween-80) 100 % of control; (endpoint: mean survival time, dose: 25.0 mg/kg/injection, schedule: Q01DX009 (ip), vehicle: saline with Tween-80) 98 % of control; (endpoint: mean survival time, dose: 50.0 mg/kg/injection, schedule: Q04DX003 (ip), vehicle: saline with Tween-80) 103 % of control.

As for `CCC1(C)CC(=O)NC(=O)C1`, the T/C reads like this: (endpoint: mean survival time, dose: 2.5 mg/kg/injection, schedule: Q01DX009 (ip), vehicle: saline with Tween-80) 97 % of control; (endpoint: mean survival time, dose: 5.0 mg/kg/injection, schedule: Q01DX009 (ip), vehicle: saline with Tween-80) 100 % of control; (endpoint: mean survival time, dose: 10.0 mg/kg/injection, schedule: Q01DX009 (ip), vehicle: saline with Tween-80) 94 % of control.

Take `COc1ccc(CCN(C=O)c2ccc(OC)c(OC)c2)cc1OC`: the T/C is, setting by setting: (endpoint: mean survival time, dose: 12.5 mg/kg/injection, schedule: Q01DX009 (ip), vehicle: water) 96 % of control; (endpoint: mean survival time, dose: 25.0 mg/kg/injection, schedule: Q01DX009 (ip), vehicle: water) 98 % of control; (endpoint: mean survival time, dose: 50.0 mg/kg/injection, schedule: Q01DX009 (ip), vehicle: water) 98 % of control; (endpoint: mean survival time, dose: 100.0 mg/kg/injection, schedule: Q01DX009 (ip), vehicle: water) 100 % of control; (endpoint: mean survival time, dose: 200.0 mg/kg/injection, schedule: Q01DX009 (ip), vehicle: water) 100 % of control.
